Source: ChEMBL document CHEMBL3885881, “DrugMatrix”

Species: Rattus norvegicus
Test: DrugMatrix - Regimen: Daily Repeat
Type: toxicity, organism-based, Sprague-Dawley
Design: regimen Daily Repeat, gender Male, age 6-8 weeks
Conditions: in vivo, po, route oral GAVAGE, […]; for ABSOLUTE BASOPHIL / ABSOLUTE EOSINOPHIL / ABSOLUTE LYMPHOCYTE / ABSOLUTE MONOCYTE / ABSOLUTE SEGMENTED NEUTROPHIL / BASOPHIL / EOSINOPHIL / ERYTHROCYTE COUNT / HEMATOCRIT / HEMOGLOBIN / LEUKOCYTE COUNT / LYMPHOCYTE / MEAN CORPUSCULAR HEMOGLOBIN / MEAN CORPUSCULAR HEMOGLOBIN CONCENTRATION / MEAN CORPUSCULAR VOLUME / MONOCYTE / NEUTROPHIL / NUCLEATED RED BLOOD CELLS / PLATELET COUNT: tissue Blood; for ALANINE AMINOTRANSFERASE / ALKALINE PHOSPHATASE / ASPARTATE AMINOTRANSFERASE / BLOOD UREA NITROGEN / CARBON DIOXIDE / CHLORIDE / CHOLESTEROL / CREATINE PHOSPHOKINASE / CREATININE / GLUCOSE / LACTATE DEHYDROGENASE / LIPASE / PHOSPHORUS / POTASSIUM / SODIUM / TOTAL BILIRUBIN / TOTAL PROTEIN / URIC ACID: tissue Plasma
[1] = 22 mg/kg, 120 h, dose level High, time 5 day
[2] = 72 h, dose 2.5 mg/Kg, dose level Low, time 3 day
[3] = 120 h, dose 2.5 mg/Kg, dose level Low, time 5 day

SMILES: OCCN1CCN(CCCN2c3ccccc3Sc3ccc(C(F)(F)F)cc32)CC1 [FLUPHENAZINE]
- ABSOLUTE BASOPHIL [1]: 0 CELLS/uL
- ABSOLUTE EOSINOPHIL [1]: 112 CELLS/uL
- ABSOLUTE LYMPHOCYTE [1]: 12846 CELLS/uL
- ABSOLUTE MONOCYTE [1]: 29.33 CELLS/uL
- ABSOLUTE SEGMENTED NEUTROPHIL [1]: 379.33 CELLS/uL
- BASOPHIL [1]: 0%
- EOSINOPHIL [1]: 1.33%
- ERYTHROCYTE COUNT [1]: 6.02 x10E6/uL
- HEMATOCRIT [1]: 36.97%
- HEMOGLOBIN [1]: 14.2 G/DL
- LEUKOCYTE COUNT [1]: 13.37 x10E3/uL
- LYMPHOCYTE [1]: 95%
- MEAN CORPUSCULAR HEMOGLOBIN [1]: 23.6 pg
- MEAN CORPUSCULAR HEMOGLOBIN CONCENTRATION [1]: 38.43 G/DL
- MEAN CORPUSCULAR VOLUME [1]: 61.37 fL
- MONOCYTE [1]: 0.33%
- NEUTROPHIL [1]: 3.33%
- NUCLEATED RED BLOOD CELLS [1]: 0 /100WBC
- PLATELET COUNT [1]: 1170.67 x10E3/uL
- ALANINE AMINOTRANSFERASE [1]: 39.33 u/L
- ALKALINE PHOSPHATASE [1]: 322.67 u/L
- ASPARTATE AMINOTRANSFERASE [1]: 67.67 u/L
- BLOOD UREA NITROGEN [1]: 15.67 mg/dL
- CARBON DIOXIDE [1]: 26.67 mmol/L
- CHLORIDE [1]: 101.33 MEQ/L
- CHOLESTEROL [1]: 61.33 mg/dL
- CREATINE PHOSPHOKINASE [1]: 190.33 u/L
- CREATININE [1]: 0.13 mg/dL
- GLUCOSE [1]: 198.67 mg/dL
- LACTATE DEHYDROGENASE [1]: 80.67 u/L
- LIPASE [1]: 9.67 u/L
- PHOSPHORUS [1]: 9.4 mg/dL
- POTASSIUM [1]: 5.22 MEQ/L
- SODIUM [1]: 144.73 MEQ/L
- TOTAL BILIRUBIN [1]: 0.2 mg/dL
- TOTAL PROTEIN [1]: 6.13 G/DL
- URIC ACID [1]: 0.77 mg/dL
- ABSOLUTE BASOPHIL [2]: 0 CELLS/uL
- ABSOLUTE EOSINOPHIL [2]: 0 CELLS/uL
- ABSOLUTE LYMPHOCYTE [2]: 6619.33 CELLS/uL
- ABSOLUTE MONOCYTE [2]: 22 CELLS/uL
- ABSOLUTE SEGMENTED NEUTROPHIL [2]: 525.33 CELLS/uL
- BASOPHIL [2]: 0%
- EOSINOPHIL [2]: 0%
- ERYTHROCYTE COUNT [2]: 5.21 x10E6/uL
- HEMATOCRIT [2]: 33.8%
- HEMOGLOBIN [2]: 13.13 G/DL
- LEUKOCYTE COUNT [2]: 7.17 x10E3/uL
- LYMPHOCYTE [2]: 92.33%
- MEAN CORPUSCULAR HEMOGLOBIN [2]: 25.2 pg
- MEAN CORPUSCULAR HEMOGLOBIN CONCENTRATION [2]: 38.83 G/DL
- MEAN CORPUSCULAR VOLUME [2]: 64.97 fL
- MONOCYTE [2]: 0.33%
- NEUTROPHIL [2]: 7.33%
- NUCLEATED RED BLOOD CELLS [2]: 0 /100WBC
- PLATELET COUNT [2]: 973 x10E3/uL
- ALANINE AMINOTRANSFERASE [2]: 49.67 u/L
- ALKALINE PHOSPHATASE [2]: 458.33 u/L
- ASPARTATE AMINOTRANSFERASE [2]: 79.67 u/L
- BLOOD UREA NITROGEN [2]: 13.33 mg/dL
- CARBON DIOXIDE [2]: 33.67 mmol/L
- CHLORIDE [2]: 99.5 MEQ/L
- CHOLESTEROL [2]: 74 mg/dL
- CREATINE PHOSPHOKINASE [2]: 223.67 u/L
- CREATININE [2]: 0.14 mg/dL
- GLUCOSE [2]: 142.33 mg/dL
- LACTATE DEHYDROGENASE [2]: 61.33 u/L
- LIPASE [2]: 13.67 u/L
- PHOSPHORUS [2]: 9.77 mg/dL
- POTASSIUM [2]: 6.34 MEQ/L
- SODIUM [2]: 144.3 MEQ/L
- TOTAL BILIRUBIN [2]: 0.13 mg/dL
- TOTAL PROTEIN [2]: 5.33 G/DL
- URIC ACID [2]: 0.6 mg/dL
- ABSOLUTE BASOPHIL [3]: 0 CELLS/uL
- ABSOLUTE EOSINOPHIL [3]: 0 CELLS/uL
- ABSOLUTE LYMPHOCYTE [3]: 9833.67 CELLS/uL
- ABSOLUTE MONOCYTE [3]: 155 CELLS/uL
- ABSOLUTE SEGMENTED NEUTROPHIL [3]: 711.33 CELLS/uL
- BASOPHIL [3]: 0%
- EOSINOPHIL [3]: 0%
- ERYTHROCYTE COUNT [3]: 5.5 x10E6/uL
- HEMATOCRIT [3]: 35.1%
- HEMOGLOBIN [3]: 13.53 G/DL
- LEUKOCYTE COUNT [3]: 10.7 x10E3/uL
- LYMPHOCYTE [3]: 91.67%
- MEAN CORPUSCULAR HEMOGLOBIN [3]: 24.63 pg
- MEAN CORPUSCULAR HEMOGLOBIN CONCENTRATION [3]: 38.57 G/DL
- MEAN CORPUSCULAR VOLUME [3]: 63.83 fL
- MONOCYTE [3]: 1%
- NEUTROPHIL [3]: 7.33%
- NUCLEATED RED BLOOD CELLS [3]: 0 /100WBC
- PLATELET COUNT [3]: 1129.67 x10E3/uL
- ALANINE AMINOTRANSFERASE [3]: 57 u/L
- ALKALINE PHOSPHATASE [3]: 337 u/L
- ASPARTATE AMINOTRANSFERASE [3]: 75 u/L
- BLOOD UREA NITROGEN [3]: 15 mg/dL
- CARBON DIOXIDE [3]: 28 mmol/L
- CHLORIDE [3]: 99 MEQ/L
- CHOLESTEROL [3]: 72 mg/dL
- CREATINE PHOSPHOKINASE [3]: 195.33 u/L
- CREATININE [3]: 0.18 mg/dL
- GLUCOSE [3]: 180 mg/dL
- LACTATE DEHYDROGENASE [3]: 77.33 u/L
- LIPASE [3]: 10.67 u/L
- PHOSPHORUS [3]: 9.47 mg/dL
- POTASSIUM [3]: 4.99 MEQ/L
- SODIUM [3]: 144.87 MEQ/L
- TOTAL BILIRUBIN [3]: 0.23 mg/dL
- TOTAL PROTEIN [3]: 6.1 G/DL
- URIC ACID [3]: 0.5 mg/dL
